Experimental data as given in article PMC8970883, “Simultaneous Determination of Seven Phenolic Acids, Two Flavonoids, and Tussilagone in Rat Plasma after Administration of Farfarae Flos Extract by LC–MS/MS” (Evidence-based Complementary and Alternative Medicine : eCAM, 2022).
Read-outs that look alike come from different tables or passages of the source.

Experiments:
[1] = Pharmacokinetic study in rats after intragastric administration of Farfarae Flos extract (plasma, LC-MS/MS); type: in vivo; settings: for Cmax / Tmax / half-life / MRT last / MRT inf: male; for Cmax: rat, plasma, po; for Tmax / half-life / MRT last / MRT inf / AUC(0–24h) / AUC(0–∞): rat plasma; for MRT last: read-out: MRT(0–24h); for MRT inf: read-out: MRT(0–∞)
Text: A high-performance liquid chromatography instrument was used to separate three types of compounds (Agilent 1200 series, USA). The HPLC instrument is composed of four parts; a G1322A degasser, G1312A Bin Pump, G1367B auto-sampler, and G1316A thermostatic column compartment. Three types of compounds and three internal standards (ISs) were separated on an Eclipse Plus C18 (4.6 × 100 mm, 1.8 μm). The mobile phase was composed of formic acid aqueous solution (A) and formic acid methanol solution (B). The concentration of formic acid in both A and B solution was 0.1% (v/v). The gradient elution was as follows. The proportion of 10% B changes to 40% from 0 min to 3mins. 40% B changes to 90% from 16 to 18 min. B is maintained at 100% from 19 to 28 min. The flow rate, sample injected volume, and column temperature was 0.35 mL·min^−1, 10 μL, and 35°C, respectively.
Quantitative analysis of all samples was performed on Sciex API 3200 with an electrospray ionization (ESI) source. Analyst 1.6.2 workstation for instrument operation, data management, and data analysis were employed to analyze and process data (AB, Sciex). Ten analyzed compounds and three ISs were optimized during multiple reactions monitoring (MRM). […] MRM parameters of CCLA were set at 353.1-191.0. […] MRM parameters of IAB were set as 515.3-353.2 and MRM parameters of IAA were set at 515.2-353.0. MRM parameters of IAC and tussilagone were set as 515.3-352.9, 391.4-217.4, respectively.
Twenty male rats (4 months old, weight 240 ± 20 g) were obtained commercially from Vital River Laboratory Animal Company (Beijing, China). Before the pharmacokinetic experiments, they were free to eat food and drink water for one week for adapting to the environment when the dark light cycle was 12 hours, while the temperature was maintained at 25 ± 5°C. The animal experiments were guided and strictly approved by Tianjin Hospital animal ethics committee. They were fasted for 12 hours and could only drink freely water before intragastric administration of Farfarae Flos extract. Ten rats in each group were employed for eliminating data variation caused by different animal individuals. All rats in groups 1 and group 2 were orally administrated one time at two dosages of Farfarae Flos extract (carboxymethyl cellulose sodium salt (0.5%) was used to suspend the extract to prepare the administration solution 3.90 g·kg^−1 and 7.80 g·kg^−1), respectively. Rats were anesthetized with ether. The heparinized 1.5 mL polythene tube was used to collect bank plasma samples before administering dose of the extract. About 250 μL plasma samples were collected at each collecting points of 5 min, 10 min, 0.25 h, 0.50 h, 0.75 h, 1 h, 2 h, 4 h, 8 h, 12 h, 24 h, and 36 h via fossa orbitalis after dosing. All plasma samples from collecting points need to be centrifuged at 4,000 rpm for ten minutes. The supernatant fluid of centrifuged plasma samples was obtained and immediately stored at −20°C in a refrigerator until they were analyzed.
The maximum concentration (Cmax) and the time to reach the maximum concentration (Tmax) of ten target compounds were directly calculated by the real concentration-time data in the plasma. The data were expressed as mean ± SD.
Ten microliters of ISs solution (contained puerarin, ferulic acid, and artemisinin) and the plasma sample (100 μL) were added into a clean tube, and then acetonitrile (400 μL) was added to precipitate protein. After centrifugation at 14000 rpm for 10 minutes, a mild nitrogen flow was used to evaporate the liquid of the supernatant to dryness. Then, the residue was dissolved in methanol (100 μL). The solution was vortexed for 3 min, mixed for 3 minutes with ultrasound, and centrifuged for 10 min. Finally, the solution (10 μL) was used to detect concentration of ten target compounds in rat plasma.

[2] = Stability of QC samples in rat plasma (24 h, freeze-thaw, 4 weeks); type: in vitro ADME; settings: six replicates; for 24 h stability Remain (%): 24 hours at 20°C; for Freeze-thaw stability, percent remaining: freeze-thaw cycles −20°C to 20°C; for Long stability Remain (%): stored at −80°C for 4 weeks
Protocol: Stock solution of 10 analytical compounds (1.00 mg·mL^−1) and three internal standards (ISs) was dissolved in methanol and placed in the refrigerator before testing. Methanol was used to prepare ferulic acid (IS1), puerarin (IS2), and artemisinin (IS3) solutions to reach a concentration of 1 μg mL^−1, respectively. A specific volume of each analyte stock solution is mixed together to prepare the standard working solution containing 10 analytes with a concentration of 10 times at LLOQ and three levels (high, medium, and low). Quality control (QC) samples for methodological validation were prepared to obtain the final concentration by adding standard working solution (10 μL) into blank plasma samples (100 μL).
Four concentration levels of ICB and ICA were 4, 12, 400, and 12000 ng mL^−1, respectively. Four concentration levels of caffeic acid were 10, 30, 1000, and 30000 ng·mL^−1, respectively.
In the stability test, 24-hour stability (The samples were placed for 24 hours at 20°C and then measured), freeze-thaw cycles (The sample was injected after the temperature changing from −20°C to 20°C), and 4 weeks stability (The sample was determined after stored at −80°C for 4 weeks) of representative QC samples were all tested. All of them were assayed with six replicates.

[3] = 3.9 g/kg, oral Farfarae Flos extract 3.9 g·kg^−1, mean ± SD
[4] = 7.8 g/kg, oral Farfarae Flos extract 7.8 g·kg^−1, mean ± SD
[5] = oral Farfarae Flos extract 3.9 g·kg^−1, mean ± SD
[6] = oral Farfarae Flos extract 7.8 g·kg^−1, mean ± SD
[7] = high concentration level (3000-30000 ng·mL^−1)
[8] = low concentration level (3-30 ng·mL^−1)
[9] = medium concentration level (100-1000 ng·mL^−1)

Compound | Cmax [1, 3] [ng/mL] | Cmax [1, 4] [ng/mL] | Tmax [1, 5] [h] | half-life [1, 5] [h] | MRT last [1, 5] [h] | MRT inf [1, 5] [h] | Tmax [1, 6] [h] | half-life [1, 6] [h] | MRT last [1, 6] [h] | MRT inf [1, 6] [h] | AUC(0–24h) [1, 5] [ng/mL ∗ h] | AUC(0–24h) [1, 6] [ng/mL ∗ h] | AUC(0–∞) [1, 6] [ng/mL ∗ h] | 24 h stability Remain (%) [2, 7] [%] | Freeze-thaw stability, percent remaining [2, 7] [%] | Long stability Remain (%) [2, 7] [%] | 24 h stability Remain (%) [2, 8] [%] | Freeze-thaw stability, percent remaining [2, 8] [%] | Long stability Remain (%) [2, 8] [%] | 24 h stability Remain (%) [2, 9] [%] | also measured
O=C(/C=C/c1ccc(O)c(O)c1)O[C@H]1[C@H](O)C[C@](O)(C(=O)O)C[C@H]1O [CCLA, cryptochlorogenic acid] | 177 ± 131 | > 1000 | 0.64 ± 0.2 | 1.03 ± 0.53 | 4.17 ± 1.73 | 5.16 ± 2.01 | 0.39 ± 0.2 | 1.06 ± 0.58 | 5.02 ± 2.07 | 6.23 ± 2.1 | 422.3 ± 210.5 | 1938 ± 1401 | 2019 ± 1397 | 112 | 93.2 | 95.9 | 98.4 | 96.8 | 97.5 | 112 | AUC(0–∞) [1, 5]: 585.7 ± 414.0 ng/mL ∗ h; Freeze-thaw stability, percent remaining [2, 9]: 82.9%; Long stability Remain (%) [2, 9]: 98.6%
O=C(O)/C=C/c1ccc(O)c(O)c1 [Caffeic acid, caffeic acid] | 96.3 ± 36.6 | 106 ± 24.4 | 0.23 ± 0.04 | 4.65 ± 4.89 | 6.47 ± 3.05 | 14.8 ± 8.46 | 0.21 ± 0.04 | 2.75 ± 2.71 | 4.81 ± 3.64 | 15.6 ± 10.5 | 338.9 ± 246.4 | 473.5 ± 273.8 | 723.9 ± 468.5 | 90.7 | 85.5 | 81.1 | 81.1 | 101 | 113 | 113 | AUC(0–∞) [1, 5]: 691.7 ± 477.5 ng/mL ∗ h; Freeze-thaw stability, percent remaining [2, 9]: 87.2%; Long stability Remain (%) [2, 9]: 109%
O=C(C=Cc1ccc(O)c(O)c1)OC1CC(O)(C(=O)O)CC(O)C1OC(=O)C=Cc1ccc(O)c(O)c1 (stereo not shown) [IAC, isochlorogenic acid C] | 47.3 ± 29.6 | 265 ± 95.5 | 0.56 ± 0.25 | 4.25 ± 6.16 | 5.79 ± 3.25 | 18.7 ± 18.6 | 0.35 ± 0.21 | 1.37 ± 0.83 | 8.8 ± 2.73 | 13.8 ± 4.86 | 187 ± 85.5 | 823.4 ± 182.9 | 941.9 ± 204.7 | 97.6 | 93.7 | 106 | 91.7 | 106 | 102 | 105 | AUC(0–∞) [1, 5]: 319.1 ± 217.3 ng/mL ∗ h; Freeze-thaw stability, percent remaining [2, 9]: 98.6%; Long stability Remain (%) [2, 9]: 108%
O=c1c(O[C@@H]2O[C@H](CO)[C@@H](O)[C@H](O)[C@H]2O)c(-c2ccc(O)c(O)c2)oc2cc(O)cc(O)c12 [Isoquercitrin, isoquercitrin] | 5.81 ± 5.72 | 10.2 ± 6.83 | 0.44 ± 0.26 | 0.88 ± 1.01 | 3.16 ± 3.46 | 7.56 ± 6.22 | 0.27 ± 0.1 | 1.19 ± 1.65 | 2.81 ± 1.79 | 9.94 ± 10.4 | 7.284 ± 5.643 | 16.15 ± 12.24 | 25.18 ± 13.92 | 113 | 110 | 92.3 | 84.4 | 104 | 92.0 | 113 | Freeze-thaw stability, percent remaining [2, 9]: 111%; Long stability Remain (%) [2, 9]: 105%
